# Test results taken from US20030186281A1, “Modified tetracycline repressor protein compositions and methods of use” (priority 2001, published 2003).
# System: tet operator sequence
# Experiment: β-galactosidase activity of a tetracycline-regulated promoter in transformed E. coli with revTetR, in the presence and absence of anhydrotetracycline (atc)
# Assay type: cell-based, Escherichia coli
# Details: FIG. 2
# Procedure: The relative activity of revTetR repressors was determined at 28° C. and 37° C. for each clone by measuring β-galactosidase activity of a tetracycline-regulated promoter in transformed Escherichia coli in the presence and absence of the tetracycline analog, anhydrotetracycline (atc). The relative β-galactosidase activity was measured in standard Miller units and is presented as the percent of maximal expression as measured in the absence of Tet repressor. […] With respect to each mutant, as well as the wild-type controls, FIG. 2 provides two horizontal bars; the upper horizontal bar represents the level of β-galactosidase activity in the absence of anhydrotetracycline (−atc) while the lower horizontal bar represents the level of β-galactosidase activity in the presence of anhydrotetracycline (+atc). […]
# The ability of each revTetR clone to bind to its cognate tet operator sequence and regulate transcription in a prokaryotic organism, Escherichia coli, in the presence and absence of a tetracycline analog (anhydrotetracycline, atc) was determined (Table 3, FIG. 2). […]
structure (smiles),measurement,value
"Cc1c2c(c(O)c3c(O)cccc13)C(=O)[C@]1(O)C(=O)C(C(N)=O)=C(O)[C@@H](N(C)C)[C@@H]1C2 [anhydrotetracycline, reference compound]",repression of transcription in prokaryotic organisms by the tetracycline analog (with revTetR),about 50 fold
